Reference: US20240299359A1, “PHARMACEUTICAL COMPOSITION FOR ANIMALS CONTAINING 5-HYDROXY-METHYLIMIDAZOLIDINE-2,4-DIONE COMPOUND AS ACTIVE INGREDIENT” (KYONGBO PHARM. CO., LTD., priority 2021, published 2024)
Values joined by “and” are separate entries in the source; they are usually repeats but may differ in a detail not shown here. Identical values can stand only once.

Test system: beagles
Assay: 13-week repeated oral toxicity: hematological test
Assay type: in vivo, beagle
Protocol: Fasting was conducted the day before administration (blood test date, pre), the 4th week (day 29) after administration, the 8th week (day 57) after administration, and the 13th week (day 92) after administration, and when the remaining feed was present in the feed container 3 hours after feeding on the day of fasting, it was removed.
All subjects were fasted for 16 hours and measurements were then performed pre (before administration), 4 weeks (day 29) after administration, 8 weeks (day 57) after administration, and 13 weeks (day 92) after administration. Within 3 hours after 2 to 3 ml of blood collected from the jugular vein of each subject was injected into a CBC bottle containing EDTA, RBC, HGB, HCT, RBC indices (MCV, MCH, MCHC), and platelet count and WBC differential count were measured using an automatic hematometer.

[1] = G3 500 mg/kg, repeated administration for 13 weeks, female, group mean
[2] = G3 500 mg/kg, repeated administration for 13 weeks, female, individual animals
[3] = G3 500 mg/kg, repeated administration for 13 weeks, male, group mean
[4] = G3 500 mg/kg, repeated administration for 13 weeks, male, individual animals
[5] = G4 1,000 mg/kg group, female (F10-F12, Mean), before administration (day 0)
[6] = G4 1,000 mg/kg group, female (F10-F12, Mean), before administration (day 0), mean
[7] = G4 1,000 mg/kg group, male (M10-M12, Mean), before administration (day 0)
[8] = G4 1,000 mg/kg group, male (M10-M12, Mean), before administration (day 0), mean
[9] = G4 1,000 mg/kg, repeated administration for 13 weeks, female, group mean
[10] = G4 1,000 mg/kg, repeated administration for 13 weeks, female, individual animals
[11] = G4 1,000 mg/kg, repeated administration for 13 weeks, male, group mean
[12] = G4 1,000 mg/kg, repeated administration for 13 weeks, male, individual animals

## CN1C(=O)NC(=O)C1O (stereo not drawn) [KBP-001, 5-hydroxy-1-methylimidazolidine-2,4-dione]
[1]
  MCH: 23.5 pg
  MCHC: 33.37 g/dL
  MCV: 70.2 fL
  Retic: 0.59%
  WBC Differential Counting(%) Baso: 0.43%
  WBC Differential Counting(%) Eos: 3.03%
  WBC Differential Counting(%) Lymph: 33.40%
  WBC Differential Counting(%) Mono: 4.37%
  WBC Differential Counting(%) Neut: 58.50%
[2]
  HCT: 42.0% and 49.4% and 52.6%
  HGB: 14.2 g/dL and 16.3 g/dL and 17.5 g/dL
  MCH: 23.8 pg and 23.9 pg and 22.7 pg
  MCHC: 33.7 g/dL and 33.1 g/dL and 33.3 g/dL
  MCV: 70.4 fL and 72 fL and 68.2 fL
  Retic: 0.84% and 0.40% and 0.53%
  WBC Differential Counting(%) Baso: 0.3% and 0.5% and 0.4%
  WBC Differential Counting(%) Eos: 3.2% and 2.8% and 3.1%
  WBC Differential Counting(%) Lymph: 37.9% and 30.3% and 32.0%
  WBC Differential Counting(%) Mono: 4.3% and 3.5% and 5.2%
  WBC Differential Counting(%) Neut: 62.4%
[3]
  HCT: 48.10%
  HGB: 16.27 g/dL
  MCH: 23.8 pg
  MCHC: 33.83 g/dL
  MCV: 70.4 fL
  Retic: 0.41%
  WBC Differential Counting(%) Baso: 1.10%
  WBC Differential Counting(%) Eos: 5.07%
  WBC Differential Counting(%) Lymph: 30.00%
  WBC Differential Counting(%) Mono: 7.23%
  WBC Differential Counting(%) Neut: 55.697%
[4]
  HCT: 42.2% and 49.5% and 52.6%
  HGB: 14.2 g/dL and 16.9 g/dL and 17.7 g/dL
  MCH: 23.5 pg and 24.4 pg and 23.6 pg
  MCHC: 33.7 g/dl (2×) and 34.1 g/dl
  MCV: 70 fL and 71.5 fL and 69.9 fL
  Retic: 0.54% and 0.46% and 0.23%
  WBC Differential Counting(%) Baso: 0.3% and 0.4% and 2.6%
  WBC Differential Counting(%) Eos: 3.9% and 7.5% and 3.8%
  WBC Differential Counting(%) Lymph: 23.4% and 27.1% and 39.5%
  WBC Differential Counting(%) Mono: 7.8% (2×) and 6.1%
  WBC Differential Counting(%) Neut: 64.3% and 56.8% and 46.8%
[5]
  HCT: 47.7% and 44.4% and 48.4%
  HGB: 16.1 g/dL and 14.9 g/dL and 16.2 g/dL
  MCH: 22.9 pg and 23.2 pg and 22.2 pg
  MCHC: 33.7 g/dL and 33.5 g/dL
  MCV: 68 fL and 69.2 fL and 66.3 fL
  Retic: 1.79% and 1.14% and 0.92%
  WBC Differential Counting Baso: 0.5% and 0.7% and 0.9%
  WBC Differential Counting Eos: 3.8% and 3.2% and 2.1%
  WBC Differential Counting Lymph: 30.9% and 31.1% and 43.6%
  WBC Differential Counting Mono: 4.6% and 4.0% and 5.5%
  WBC Differential Counting Neut: 59.3% and 60.5% and 47.3%
[6]
  HCT: 39.40%
  HGB: 13.17 g/dL
  MCH: 18.4 pg
  MCHC: 25.57 g/dL
  MCV: 55.4 fL
  Retic: 0.77%
  WBC Differential Counting Baso: 0.74%
  WBC Differential Counting Eos: 3.70%
  WBC Differential Counting Lymph: 28.17%
  WBC Differential Counting Mono: 4.91%
  WBC Differential Counting Neut: 46.85%
[7]
  HCT: 45.1% and 46.8% and 43.2%
  HGB: 15.0 g/dL and 15.6 g/dL and 14.5 g/dL
  MCH: 22.4 pg and 22.5 pg and 21.7 pg
  MCHC: 33.2 g/dL and 33.3 g/dL and 33.6 g/dL
  MCV: 67.6 fL and 67.4 fL and 64.7 fL
  Retic: 0.51% and 0.65% and 0.56%
  WBC Differential Counting Baso: 0.8% and 0.4% and 0.7%
  WBC Differential Counting Eos: 3.5% and 3.9% and 4.8%
  WBC Differential Counting Lymph: 34.8% and 31.7% and 35.5%
  WBC Differential Counting Mono: 6.5% and 7.8% and 4.5%
  WBC Differential Counting Neut: 53.8% and 55.9% and 54.0%
[8]
  HCT: 39.19%
  HGB: 13.07 g/dL
  MCH: 18.2 pg
  MCHC: 27.30 g/dL
  MCV: 54.9 fL
  Retic: 0.74%
  WBC Differential Counting Baso: 0.78%
  WBC Differential Counting Eos: 3.68%
  WBC Differential Counting Lymph: 28.23%
  WBC Differential Counting Mono: 5.10%
  WBC Differential Counting Neut: 46.56%
[9]
  HCT: 41.40%
  HGB: 14.00 g/dL
  MCH: 23.3 pg
  MCHC: 33.83 g/dL
  MCV: 68.8 fL
  Retic: 0.36%
  WBC Differential Counting(%) Baso: 0.40%
  WBC Differential Counting(%) Eos: 2.07%
  WBC Differential Counting(%) Lymph: 36.50%
  WBC Differential Counting(%) Mono: 4.57%
  WBC Differential Counting(%) Neut: 55.93%
[10]
  HCT: 39.9% (2×) and 44.4%
  HGB: 13.4 g/dL and 13.6 g/dL and 15.0 g/dL
  MCHC: 33.5 g/dL and 34.2 g/dL and 33.8 g/dL
  MCV: 69.5 fL and 68.2 fL and 68.7 fL
  Retic: 0.53% and 0.27% and 0.28%
  WBC Differential Counting(%) Baso: 0.4% and 0.5% and 0.3%
  WBC Differential Counting(%) Eos: 3.1% and 0.8% and 2.3%
  WBC Differential Counting(%) Lymph: 31.4% and 42.6% and 35.8%
  WBC Differential Counting(%) Mono: 3.9% (2×) and 5.9%
  WBC Differential Counting(%) Neut: 60.7% and 51.8% and 55.3%
[11]
  HCT: 46.33%
  HGB: 15.80 g/dL
  MCH: 23.4 pg
  MCHC: 34.07 g/dL
  MCV: 68.6 fL
  Retic: 0.31%
  WBC Differential Counting(%) Baso: 0.43%
  WBC Differential Counting(%) Eos: 4.73%
  WBC Differential Counting(%) Lymph: 32.17%
  WBC Differential Counting(%) Mono: 6.07%
  WBC Differential Counting(%) Neut: 56.33%
[12]
  HCT: 43.1% and 47.6% and 48.3%
  HGB: 14.4 g/dL and 16.9 g/dL and 16.1 g/dL
  MCH: 23.3 pg and 24.5 pg and 22.3 pg
  MCHC: 33.3 g/dL and 35.5 g/dL and 33.4 g/dL
  MCV: 70 fL and 69.1 fL and 66.8 fL
  Retic: 0.27% and 0.32% and 0.33%
  WBC Differential Counting(%) Baso: 0.5% and 0.4% (2×)
  WBC Differential Counting(%) Eos: 4.0% and 4.4% and 5.8%
  WBC Differential Counting(%) Lymph: 33.7% and 29.5% and 33.2%
  WBC Differential Counting(%) Mono: 5.8% and 6.8% and 5.6%
  WBC Differential Counting(%) Neut: 55.7% and 58.6% and 54.7%
